Results reported in US20030113267A1, “Colon contrast enhanced imaging” (priority 1999, published 2003).

What was measured:
[1] = MRI signal intensity over time in liver parenchyma, healthy volunteers; assay type: in vivo, human; conditions: average of six healthy volunteers, 0.1 mmol/kg i.v., FIG. 1
Procedure: (§1) The trial was conducted in six healthy volunteers aged between 22 and 29 years. The contrast agent used was Gd-BOPTA meglumine salt (MultiHance™), administered intravenously at a dose of 0.1 mmol/kg of body weight. The successive recording of images of the abdomen was performed 1, 12, 24, 36, 48, 70 and 105 hours after administration of the agent using the following 3D angio-sequence: 3D FLASH; TR 4.6 ms; TE 1.8 ms; α 50° C.; rect. FOV 390 mm (6/8); Ma: 215×512; acq 28 s; slab thickness 120 mm; 42 sections. Three volunteers were re-tested 14 days after administration of the agent.
(§2) T1-weighted axial images of the liver and abdomen were recorded in addition to the 3D angio-sequences referred to above.
(§3) The visualisation procedure was conducted with an MRI scanner operating at 1.5 Tesla (Magneton Vision Plus, Siemens Medical Systems, Erlangen, Germany) equipped with a phased array body coil.
(§4) Before performing colonography, it was possible to investigate liver function by recording the signal intensity in the liver parenchyma and gall bladder in the first few hours after administration of the contrast agent. […] This seems to be the ideal period for recording three-dimensional MRI colonography.

[2] = MRI signal intensity over time in gall bladder, healthy volunteers; assay type: in vivo, human
Procedure: as §1, §2, §3, §4

[3] = in man; cited from earlier work
[4] = cited from earlier work
[5] = 3D angiographic MRI colonography in healthy volunteers after intravenous injection; assay type: in vivo, human
Text: Description of method of acquisition of MRI images of the luminal part of the colon using the three-dimensional angiography technique in healthy volunteers after intravenous injection of MultiHance™ (Gd-BOPTA meglumine salt).
A three-dimensional angiographic imaging technique was used because it provides advantageous visualisation of large regions of the anatomy, especially when associated with administration of contrast agents which are particularly effective in reducing the T1 relaxation times in standard MRI investigations.
In the trial conducted, the increased contrast in the hepatobiliary system and the gastrointestinal system was obtained with this kind of diagnostic technique, which produced up to 42 images of a three-dimensional volume measuring 40×32×12 cm in a single breath-hold.
as §1, §2, §3
The images were processed with standard MIP software on a dedicated 3D MR workstation (Virtuoso, Siemens Medical System).
No preparation, medication or joint administration of other drugs or other contrast media was performed on the volunteers studied.

SMILES: CNC[C@H](O)[C@@H](O)[C@H](O)[C@H](O)CO.CNC[C@H](O)[C@@H](O)[C@H](O)[C@H](O)CO.O=C([O-])CN(CCN(CC(=O)[O-])CC(=O)O)CCN(CC(=O)O)C(COCc1ccccc1)C(=O)[O-].[Gd+3] (centres unmarked) [MultiHance, gadobenate dimeglumine]
- time for signal intensity to be halved in liver parenchyma [1]: ≤ 10 h
- enhancement within the gallbladder ([2]; 24 hours after injection of 0.1 mmol/kg BW, FIG. 2): still intense enhancement
- half-life of signal intensity in gall bladder ([2]; average of six healthy volunteers, 0.1 mmol/kg i.v., FIG. 1): 15 h
- proportion excreted by the biliary route [3]: 2-4%
- solubility in water [4]: soluble in water
- time after which a partial increase of intraluminal signal was still detectable ([5]; 0.1 mmol/kg i.v.): 8 days
- homogeneity of contrast in the lumen ([5]; 0.1 mmol/kg i.v., faeces present, no preparation): homogenous contrast in the lumen
- signal in the colon, 3D MR colonography ([5]; 24 hours after injection of 0.1 mmol/kg BW, no bowel preparation, FIG. 2): Homogenous signal can be seen in all segments of the colon
- time to intense increase in intraluminal contrast after administration ([5]; all six healthy volunteers, 0.1 mmol/kg i.v., no bowel preparation): ≤ 24 h
- time after administration at which an intense intraluminal signal was still detected in the colon ([5]; in some patients, 0.1 mmol/kg i.v.): ≤ 100 h
- intraluminal contrast after intravenous administration ([5]; intravenous administration, contrast recorded in the colon): substantial increase in intraluminal contrast
